Measured values taken from patent US5539123A, “Low molecular weight thiocarbamates as inhibitors of elastase, uses and method of synthesis” (University of Kentucky Research Foundation, priority 1994, dated 1996).
Values joined by “and” are separate entries in the source; they are usually repeats but may differ in a detail not shown here. Equal entries are not always repeated. “Also recorded” adds a separate entry of the source.

Test system: Zymosan Induced Inflammation
Assay: Zymosan-induced paw inflammation (arthritis) in rats, percent volume increase of the paw
Format: in vivo, rat
Conditions: for % Oedema Volume change: 3.6 × 10^-5 mg/g IP vs control
Text: A reversible arthritic condition was induced according to known procedures for the Zymosan-induced arthritis (See J. P. Tarayre, A. Delphon, et al., Pharmacological studies in zymosan inflammation in rats and mice, I: Zymosan-induced paw edema in rat and mice, Pharmacological Research, 21, (#4) 375-384 (1989); Takuo Sato, Yoshitaka Ino, et al., Inhibitory effects of a novel synthetic protease inhibitor (FUT-175), on the paw edema in rats and Zymosan-induced compliment activation in vitro, Japan J. Pharmacol., 42,587-589 (1986); David K. Gremmell, et al., Comparative effects of drugs on four paw edema models on the rat, Agents and Actions 4, (#1) 107-116 (1979); and D. C. Keystone, et al., Zymosan-induced arthritis: A model of chronic proliferative arthritis following activation of the alternative pathway of compliment, Arthritis and Rheumatism 20 (#7) 1396-1401 (1977)).
Each rat (250 g each) was kept in a restraining cage with light ether anesthesia until the administration of the drug. The procedure involves the intramuscular (IM) injection of 1 mg of Zymosan in 50 μL (microliters) of normal saline in the pad of a hind paw of the rat. Swelling becomes evident within 20 minutes and reaches a maximum within 1.5 hours. The swelling disappears after 24 hours. In the Figures the reversal to normal size of the paw within 24 hours is not shown. The degree of swelling is measured by a water displacement method and the percent (%) of volume increase of the paw is plotted against time (see J. P. Tarayre, A. Delphon, et al., Pharmacological studies in zymosan inflammation in rats and mice. I: Zymosan-induced paw edema in rat and mice, Pharmaco-logical Research, 21, (#4) 375-384 (1989); Takuo Sato, Yoshitaka Ino, et al., Inhibitory effects of a novel synthetic protease inhibitor (FUT-175), on the paw edema in rats and Zymosan-induced compliment activation in vitro, Japan J. Pharmacol., 42, 587-589 (1986)).
Control was conducted by injecting I.P. 100 μl of propylene glycol (the vehicle) 15 min. prior to Zymosan administration. […] Data from tables 1 and 1a are plotted in FIGS. 1 and 1a respectively.
In the experimental procedure the drug [PC-16, […] (FIG. 2) or 90 μg/rat (FIG. 3)] is dissolved in 100 μL of propylene glycol and is injected IP to the rats. Fifteen minutes later the Zymosan (1mg/50 μL of normal saline) solution is injected IM into the paw of the rats. The degree of swelling is subsequently measured at various time intervals for a period of 24 hours and is reported up to 4 hours.

[1] = 3.6 × 10^-4 mg/g IP, time (min) = first number of the line

For CCCCNC(=O)Sc1nnnn1-c1ccccc1 [PC-16], the “% Volume Increase” value (3.6 × 10^-4 mg/g IP, 205 min) was 3.41%, the “% Volume Increase, Mean of 3 experiments” value (3.6 × 10^-4 mg/g IP, 210 min) was 3.48% and the “% Volume Increase, Mean of 3 experiments” value (3.6 × 10^-4 mg/g IP, 220 min) was 3.30%. The “% Volume Increase” value (3.6 × 10^-4 mg/g IP, 225 min) was 3.32%, the “% Volume Increase, Mean of 3 experiments” value (3.6 × 10^-4 mg/g IP, 230 min) was 3.34% and the “% Volume Increase, Mean of 3 experiments” value (3.6 × 10^-4 mg/g IP, 240 min) was 2.93%. The “% Volume Increase, Experiment #3” value [1] was 0.00% and 1.02% and 1.55% and 2.18% and 2.75% and 3.44% and 3.50%, the “Volume, Experiment #3” value [1] was 1.65 mL and 1.67 mL and 1.68 mL and 1.69 mL and 1.70 mL and 1.71 mL and the “% Oedema Volume change” value (10 min) was 28.0%. For the same molecule, the “% Oedema Volume change” value (20 min) was -42.8%, the “% Oedema Volume change” value (30 min) was -54.1% and the “% Oedema Volume change” value (40 min) was -58.3%. For the same molecule, the “% Oedema Volume change” value (50 min) was -60.8%, the “% Oedema Volume change” value (60 min) was -65.8% and the “% Oedema Volume change” value (65 min) was -64.8%. The “% Oedema Volume change” value (70 min) was -65.7%, the “% Oedema Volume change” value (80 min) was -63.9% and the “% Oedema Volume change” value (95 min) was -66.4%. The “% Oedema Volume change” value (100 min) was -68.2%, the “% Oedema Volume change” value (105 min) was -68.7% and the “% Oedema Volume change” value (115 min) was -69.9%. The “% Oedema Volume change” value (120 min) was -69.6%, the “% Oedema Volume change” value (130 min) was -68.8% and the “% Oedema Volume change” value (135 min) was -65.8%. For the same molecule, the “% Oedema Volume change” value (145 min) was -64.6%, the “% Oedema Volume change” value (150 min) was -67.7% and the “% Oedema Volume change” value (160 min) was -67.4%. The “% Oedema Volume change” value (175 min) was -66.7%, the “% Oedema Volume change” value (190 min) was -69.2% and the “% Oedema Volume change” value (200 min) was -67.6%. The “% Oedema Volume change” value (205 min) was -65.6%, the “% Oedema Volume change” value (210 min) was -63.4% and the “% Oedema Volume change” value (220 min) was -61.2%. For the same molecule, the “% Oedema Volume change” value (225 min) was -61.9%, the “% Oedema Volume change” value (240 min) was -62.7% and the “% Volume Increase, Mean of 3 experiments” value (3.6 × 10^-5 mg/g IP, 0 min) was 0.00%. The “% Volume Increase, Mean of 3 experiments” value (3.6 × 10^-5 mg/g IP, 10 min) was 12.2%, the “% Volume Increase, Mean of 3 experiments” value (3.6 × 10^-5 mg/g IP, 20 min) was 16.3% and the “% Volume Increase, Mean of 3 experiments” value (3.6 × 10^-5 mg/g IP, 30 min) was 17.3%. The “% Volume Increase, Mean of 3 experiments” value (3.6 × 10^-5 mg/g IP, 40 min) was 18.8%, the “% Volume Increase, Mean of 3 experiments” value (3.6 × 10^-5 mg/g IP, 50 min) was 19.1% and the “% Volume Increase, Mean of 3 experiments” value (3.6 × 10^-5 mg/g IP, 60 min) was 19.5%. For the same molecule, the “% Volume Increase, Mean of 3 experiments” value (3.6 × 10^-5 mg/g IP, 65 min) was 19.8%, the “% Volume Increase, Mean of 3 experiments” value (3.6 × 10^-5 mg/g IP, 70 min) was 20.0% and the “% Volume Increase, Mean of 3 experiments” value (3.6 × 10^-5 mg/g IP, 80 min) was 20.5%. The “% Volume Increase, Mean of 3 experiments” value (3.6 × 10^-5 mg/g IP, 95 min) was 19.7%, the “% Volume Increase, Mean of 3 experiments” value (3.6 × 10^-5 mg/g IP, 100 min) was 18.6% and the “% Volume Increase, Mean of 3 experiments” value (3.6 × 10^-5 mg/g IP, 105 min) was 18.4%. For the same molecule, the “% Volume Increase, Mean of 3 experiments” value (3.6 × 10^-5 mg/g IP, 115 min) was 17.9%, the “% Volume Increase, Mean of 3 experiments” value (3.6 × 10^-5 mg/g IP, 120 min) was 17.7% and the “% Volume Increase, Mean of 3 experiments” value (3.6 × 10^-5 mg/g IP, 130 min) was 17.7%. For the same molecule, the “% Volume Increase, Mean of 3 experiments” value (3.6 × 10^-5 mg/g IP, 135 min) was 17.7%, the “% Volume Increase, Mean of 3 experiments” value (3.6 × 10^-5 mg/g IP, 145 min) was 17.7% and the “% Volume Increase, Mean of 3 experiments” value (3.6 × 10^-5 mg/g IP, 150 min) was 15.6%. For the same molecule, the “% Volume Increase, Mean of 3 experiments” value (3.6 × 10^-5 mg/g IP, 160 min) was 15.2%, the “% Volume Increase, Mean of 3 experiments” value (3.6 × 10^-5 mg/g IP, 175 min) was 14.4% and the “% Volume Increase, Mean of 3 experiments” value (3.6 × 10^-5 mg/g IP, 190 min) was 12.6%. The “% Volume Increase, Mean of 3 experiments” value (3.6 × 10^-5 mg/g IP, 200 min) was 13.3%, the “% Volume Increase, Mean of 3 experiments” value (3.6 × 10^-5 mg/g IP, 205 min) was 13.5% and the “% Volume Increase, Mean of 3 experiments” value (3.6 × 10^-5 mg/g IP, 210 min) was 13.6%. For the same molecule, the “% Volume Increase, Mean of 3 experiments” value (3.6 × 10^-5 mg/g IP, 220 min) was 13.6%, the “% Volume Increase, Mean of 3 experiments” value (3.6 × 10^-5 mg/g IP, 225 min) was 12.4% and the “% Volume Increase, Mean of 3 experiments” value (3.6 × 10^-5 mg/g IP, 240 min) was 12.1%. The “oedema reduction of rat paw” value (injected prior to Zymosan, compared with control) was “impressive oedema reduction; also recorded: impressive reduction in edema swelling”.
